Data published in patent publication US20110091473A1, “NOVEL ANTIBODY THERAPIES” (GENMAB A/S, priority 2007, published 2011).

Tests used:
CD20 on Daudi cells = biological target: T1, CD20 on Daudi cells (Homo sapiens, UniProt P11836); test: FACS binding of anti-CD20 mAb to MβCD-treated Daudi cells
T1 construct: endogenous in cells; host or cells: Daudi cells
T1 sequence (P11836 1-297): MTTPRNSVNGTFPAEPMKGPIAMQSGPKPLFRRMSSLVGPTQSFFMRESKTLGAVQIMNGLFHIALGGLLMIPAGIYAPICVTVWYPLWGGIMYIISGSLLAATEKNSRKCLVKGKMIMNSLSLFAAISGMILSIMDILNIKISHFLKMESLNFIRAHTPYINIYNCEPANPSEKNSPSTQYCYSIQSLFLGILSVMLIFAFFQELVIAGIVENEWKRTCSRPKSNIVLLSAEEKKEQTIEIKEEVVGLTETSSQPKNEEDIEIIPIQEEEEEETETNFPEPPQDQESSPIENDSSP
Experimental: To deplete cholesterol from the cell membrane, methyl-beta-cyclodextrin (MβCD, Sigma, Zwijndrecht, The Netherlands) was added in varying concentrations to Daudi cells and RAJI-CD20high cells and incubated for 30 minutes at 37° C. under gentle shaking conditions. After incubation the cells were washed twice in PBS and resuspended in test medium to a concentration of 2×10^6 viable cells/ml. […] After washing twice with FACS buffer (PBS, 0.1% Bovine Serum Albumine, 0.02% Sodium Azide), cells were analyzed on a FACS Calibur (Becton Dickinson, Breda, The Netherlands). […] Binding is expressed as mean fluorescence intensity.
Cholesterol was depleted from the cell membrane of various B cells using varying concentrations of MβCD (as described in Example 2). Cells (1×10^5 cells/staining) were incubated with a serial dilution of human CD20 mAb 2F2 starting at saturating concentrations for 30 minutes at 4° C. After washing with FACS buffer, polyclonal rabbit-anti-human IgG-FITC (DAKO A/S, Denmark) was added for 30 minutes at 4° C. The cells were washed again, resuspended in FACS buffer and analyzed by flow cytometry. The mean fluorescence intensity (MFI) is a measure for CD20 binding of the mAb. Sigmoidal dose-response curves were calculated using non-linear regression and the EC50 of mAb binding were determined (using GraphPad Prism 4 statistical software).

Daudi cells [1] = test: CD20 mAb-induced CDC of Daudi cells, PI/FACS analysis; format: cell-based, human; settings: for induction of CDC: non-treated Daudi cells, 15% normal human serum
Experimental: Cells were either non-treated or cholesterol-depleted as described in Example 2, Example 3 and Example 4, and resuspended in test medium to a concentration of 2×10^6 viable cells/ml. Daudi cells were used as target cells in a mAb-induced CDC assay. 50 μl of cell suspension was incubated with 50 μl anti-CD20 mAb in a serial dilution for 15 minutes at room temperature. After the incubation period, Normal Human Serum (M0008, Sanquin, Amsterdam, The Netherlands) was added as a source of complement (final concentration, 15%) to the cell suspension in round-bottomed microtiter plates (Nunc, Rochester, N.Y.). The mixture was incubated for 45 minutes at 37° C. after which the reaction was stopped by placing the samples on ice. Propidium iodide (PI, Sigma Aldrich, Zwijndrecht, The Netherlands) was added as a means to visualize the DNA content which becomes accessible upon permeabilisation of the cell membrane. The amount of PI-positive cells is directly correlated to the amount of dead cells, and measured using flow cytometry.

RAJI cells = test: CDC of RAJI cells, MTT analysis; format: cell-based, human
Experimental: CDC was induced by incubating B cells with anti-CD20 mAb (as described in Example 2). After 1-hour incubation (3-(4,5-dimethylthiazol-2-yl)-2,5-diphenyltetrazolium bromide (MTT) solution (5 mg/ml, Roche, Diagnostics, Almere, The Netherlands) was added to each well (flat-bottom microtiter plates; Nunc, Rochester, N.Y.). The reaction was stopped after 4 hours of incubation at 37° C. by the addition of 100 μl of 20% SDS (Roche Diagnostics, Almere, The Netherlands). After overnight incubation at 37° C. the absorbance of the samples was measured at 550-525 nm using an Elisa reader (EL808x, Biotek instruments, Highland park, Vt., USA). Cytotoxicity was expressed as a relative viability of the stimulated cells compared to cells incubated with medium only and was calculated as follows: relative viability=[(Ae−Ab)/(Ac−Ab)]*100, where Ab is the background absorbance, Ae is experimental absorbance of the lysed cells and Ac is the absorbance of untreated cells. The viability was expressed as percentage survival in comparison to non-cholesterol depleted cells (control).

Daudi cells [2] = test: CDC of Daudi cells, Alamar Blue assay; format: cell-based, human
[3] = tested on: B cell enriched cell population of a healthy volunteer; test: Anti-CD20-induced CDC of freshly isolated primary B cells; format: cell-based, human; settings: for primary B cell population killed / cell lysis: MβCD-treated, saturating conditions (≧10 μg/ml); for cell lysis upon cholesterol depletion: primary B cells treated with MβCD
Experimental: Blood was obtained from a donor (either from a healthy volunteer or from patients included in clinical trials related to 2F2). Informed consent was provided according to the Declaration of Helsinki. The blood was used to isolate peripheral blood mononuclear cells (PMBC) via […] gradient separation. Briefly, 10 ml of whole blood was supplemented with 20-25 ml PBS (Braun, Oss, Netherlands). 13 ml of Lymphocyte Separation Medium (Lonza, Verviers, Belgium) was pipetted carefully underneath the diluted whole blood solution. The solution was centrifuged at 2000 rpm for 20 minutes whereupon the interphase containing the PBMC was collected. The cells were washed twice in PBS, counted with trypan blue and suspended in test medium (RMPI 1640/pen strep/0.1% BSA) at a concentration of 2-4×10^6 viable cells/ml. Cells were used to enrich B cells via negative depletion as described in Example 8.
PBMC (obtained as described under Example 17) were used to enrich for B cells using the Dynal B cell negative isolation kit (Dynal, Invitrogen, Carlsbad, Calif.) according to manufacturer's instruction. In brief, PBMC were washed and incubated for 20 minutes with mouse monoclonal antibodies directed against CD2, CD14, CD16, CD36, CD43 or CD235a at 4° C. Magnetic beads coated with human IgG4 against mouse monoclonal antibodies were added and the mixture was again incubated for 15 minutes at 4° C. After incubation mouse mAb-stained cells were separated from the mixture using a magnet. The remaining cells are considered as the B cell enriched population.
Human B cells were isolated from whole blood of a healthy volunteer (donor A) as described under Example 17 and Example 18.
The B cell enriched cell population of donor A and Daudi cells were incubated with MβCD as described under Example 2 and cell surface protein expression and sensitivity for CDC was measured.

Row | Substance | reduction of binding affinity for CD20 (increase in EC50) (CD20 on Daudi cells; 0 mg/ml vs 5 mg/ml MβCD, Daudi cells) [fold] | binding of FITC-conjugated mAb (mean fluorescence intensity) (CD20 on Daudi cells; Daudi cells treated with varying concentrations of MβCD, 30 min) | cells lysed via CDC (Daudi cells [1]; cholesterol-depleted Daudi cells) [%] | induction of CDC (Daudi cells [1]) | potency to lyse cells in presence of complement, compared with rituximab (RAJI cells; RAJI cells depleted of cholesterol with MβCD) | potency in inducing cell lysis, compared with rituximab or 11B8 (Daudi cells [2]; Daudi cells) | CDC induction when treating cells with lovastatin (Daudi cells [2]; lovastatin-treated Daudi cells) | survival upon mAb-induced CDC (Daudi cells [2]; lovastatin-treated Daudi cells) | primary B cell population killed / cell lysis [3] | lysis of B cell enriched cell population ([3]; non-depleted primary B cells, donor A) | cell lysis upon cholesterol depletion [3] | binding affinity upon cholesterol depletion (CD20 on Daudi cells; MβCD-treated Daudi cells) | CDC-mediated lysis (Daudi cells [1]; cholesterol-depleted (lovastatin or MβCD) Daudi cells) | survival after CDC induction (RAJI cells; RAJI cells depleted by lovastatin or MβCD vs non-treated) | capability to lyse cells after cholesterol replenishment (RAJI cells; depleted RAJI cells replenished with cholesterol vs non-treated)
1 | 2F2: human anti-CD20 mAb, VH SEQ ID NO:1, VL SEQ ID NO:2, disclosed in WO 2004/035607 | ~8 | dose-dependent decrease in binding | 50 | induced CDC | more potent | more potent | still capable of inducing CDC | enhanced survival | approximately 75% | could be lysed | reduced |  |  |  | 
2 | rituximab: anti-CD20 antibody Rituxan/MabThera, type I |  |  |  | induced CDC |  |  |  | enhanced survival | 20-25% |  | reduced | negatively affected | abrogated | enhanced survival | further increased the capability
